The values that follow come from ChEMBL document CHEMBL1141226, “Discovery of a potent, orally available, and isoform-selective retinoic acid beta2 receptor agonist” (J Med Chem, 2005).

The target in series [1] is T1, Retinoic acid receptor beta (Homo sapiens) (UniProt P10826).
T1 sequence (whole entry): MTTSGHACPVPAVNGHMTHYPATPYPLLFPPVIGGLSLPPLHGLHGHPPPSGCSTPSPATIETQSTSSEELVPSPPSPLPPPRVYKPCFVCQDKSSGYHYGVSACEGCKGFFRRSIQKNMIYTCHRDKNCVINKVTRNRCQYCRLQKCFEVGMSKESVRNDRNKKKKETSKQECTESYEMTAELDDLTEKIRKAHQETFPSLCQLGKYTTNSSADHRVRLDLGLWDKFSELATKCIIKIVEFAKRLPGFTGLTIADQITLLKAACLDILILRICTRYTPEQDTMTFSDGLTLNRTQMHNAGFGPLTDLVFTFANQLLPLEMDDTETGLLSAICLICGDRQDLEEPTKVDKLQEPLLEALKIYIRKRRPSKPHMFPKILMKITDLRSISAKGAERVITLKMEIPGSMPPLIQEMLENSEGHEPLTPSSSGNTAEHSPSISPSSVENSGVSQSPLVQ
The experiment in a line: Efficacy against RARbeta1.

Series [2] concerns the target T1, Retinoic acid receptor beta (Homo sapiens). The experiment in a line: Efficacy against RARbeta2.
A short description of series [3]: Oral bioavailability in Rats. The class given is ADME, organism-based. Conditions: rat, in vivo.
Series [4] can be described thus: Distribution coefficient of the compound, log D. The format is physicochemical. Conditions: octanol/water.
Series [5] is described as follows: Solubility at pH 7.4. The class given is physicochemical. The following applies: buffer.
Series [6] is described as follows: Partition coefficient of the compound, log P. The format is physicochemical. Conditions: octanol/water.
The target of series [7] is T2, Retinoic acid receptor beta (Homo sapiens, UniProt P10826).
T2 sequence (P10826 whole entry): T1 sequence (whole entry)
Description: Transcriptional activity against RARbeta1. The format is functional.

The target in series [8] is T2, Retinoic acid receptor beta. The experiment in a line: Transcriptional activity against RARbeta2. The class given is functional.
The subject of series [9] is MCF7. The experiment in a line: Inhibition of DNA synthesis in MCF7 cells by [3H]thymidine incorporation. The following applies: Homo sapiens. The class given is functional, cell-based.

Values after ≈ are worked out from the molar mass of the structure shown. Active and inactive are the calls of the source. The calls are words filed in the database; no cut-off is given here.

For the molecule `CCc1ccc(-c2ccc(C(=O)O)cc2)cc1`, the Efficacy result in [1] and in series [2] was “inactive” each time.

`CCCc1ccc(-c2ccc(C(=O)O)cc2)cc1`: the Efficacy result in series [1] and in series [2] was “inactive” in each case.

The bioavailability is dose-corrected exposure relative to a reference, in per cent. Read a high bioavailability as good availability. In general, logD refers to lipophilicity at a set pH, counting ionised and neutral species. One may read the solubility as the dissolved amount per volume that the medium holds. Read a low solubility as little dissolved substance. In general, logP refers to a log measure of how a compound divides between an organic and an aqueous phase. `CCCCOCCOc1nc(-c2ccc(C(=O)O)c(F)c2)sc1C`: the bioavailability in series [3] was found to be 52%. In series [4], this molecule yielded a logD of 1.4. The figures for the Efficacy in series [1] and in series [2] were 40% and 96%, respectively. The molecule further yielded a solubility in series [5] of 4800 µg/mL (≈ 13.6 mM). For the same molecule, the logP in series [6] was determined as 5.1.

The term EC50 denotes the concentration needed to bring the measured effect to its halfway point. `CCCCCCCc1ccc(-c2ccc(C(=O)O)cc2)cc1`: the EC50 in series [7] is greater than 10000 nM; in series [8] it was 25.1 nM. In series [1], the Efficacy result is “inactive”. The Efficacy in [2] amounted to 64%.

For the molecule `CCCCCCCCc1ccc(-c2ccc(C(=O)O)cc2)cc1`, the EC50 in series [7] is greater than 10000 nM; in series [8] it was 126 nM. Besides, in [9], the outcome was Active. Also, the results for the Efficacy in series [1] and in series [2] were 31% and 92%, respectively. Also, the solubility in series [5] is less than 1 µg/mL.

`CCCCCCCCCc1ccc(-c2ccc(C(=O)O)cc2)cc1`: the EC50 in series [7] is 316 nM; in series [8] it was 15.8 nM. In addition, the Efficacy was determined as 58% in series [1] and 100% in [2].

On to `CC1(C)CCC(C)(C)c2cc(C(=O)Nc3ccc(C(=O)O)cc3)ccc21`, for which the Efficacy in [2] is 100%.

Turning to `CCCCCCc1ccc(-c2ccc(C(=O)O)cc2)cc1`, the EC50 in series [7] was greater than 10000 nM; in series [8] it was 50.1 nM. The Efficacy result in series [1] is “inactive”. The same molecule showed an Efficacy in series [2] of 37%.

Turning to `CCCCCc1ccc(-c2ccc(C(=O)O)cc2)cc1`, the concentration for a half-maximal effect (EC50) in series [7] is greater than 10000 nM; in series [8], 15.8 nM. For the same molecule, the Efficacy result in [1] is “inactive”. The Efficacy in series [2] amounted to 38%.

For the molecule `CCCCc1ccc(-c2ccc(C(=O)O)cc2)cc1`, the EC50 in series [7] is greater than 10000 nM; in [8], 63.1 nM. Besides, the Efficacy result in series [1] is “inactive”. The Efficacy in series [2] worked out at 36%.
